Patent publication US12208140B2, “Targeted delivery to beta cells” (THE BROAD INSTITUTE, INC., priority 2017, dated 2025)
“Also recorded” adds a separate entry of the source. Read-outs that look alike come from different tables or passages of the source.

Tests used:
CLK2 = CLK2 (Homo sapiens, UniProt P49760); test: kinase activity profiling, CLK2; format: biochemical
CLK4 = CLK4 (Homo sapiens, UniProt Q9HAZ1); test: kinase activity profiling, CLK4; format: biochemical
human β-cells [1] = test: human islet cell-culture EdU proliferation assay; format: cell-based
From the text: A human islet cell-culture system and proliferation assay developed by Wagner et al. was used to not only of preserve β-cell function over 7-10 days in culture, but also identify conditions that increase β-cell division.[32] The thymidine analog 5-ethinyl-2′-deoxyuridine (EdU) was used, which, when reacted with an azide-conjugated fluorophore, enables rapid and high-quality imaging of cells that have ever gone through S phase.[34] The detection was paired with insulin immunofluorescence, followed by automated imaging and analysis to identify EdU+ins+ cells after compound treatment. Islet cells were incubated with EdU for 6 days, consistent with the low rate of human β-cell proliferation. […] The quality of the assay was verified by using as a positive control adenoviral overexpression of human CDK6 and cyclin D1.[35]
[38] […] This effect was consistent across >20 human islet donors, irrespective of age, gender, BMI, or cause of death.

CLK1 = CLK1 (Homo sapiens, UniProt P49759); test: kinase activity profiling, CLK1; format: biochemical
Sequence of CLK1 (P49759 whole entry): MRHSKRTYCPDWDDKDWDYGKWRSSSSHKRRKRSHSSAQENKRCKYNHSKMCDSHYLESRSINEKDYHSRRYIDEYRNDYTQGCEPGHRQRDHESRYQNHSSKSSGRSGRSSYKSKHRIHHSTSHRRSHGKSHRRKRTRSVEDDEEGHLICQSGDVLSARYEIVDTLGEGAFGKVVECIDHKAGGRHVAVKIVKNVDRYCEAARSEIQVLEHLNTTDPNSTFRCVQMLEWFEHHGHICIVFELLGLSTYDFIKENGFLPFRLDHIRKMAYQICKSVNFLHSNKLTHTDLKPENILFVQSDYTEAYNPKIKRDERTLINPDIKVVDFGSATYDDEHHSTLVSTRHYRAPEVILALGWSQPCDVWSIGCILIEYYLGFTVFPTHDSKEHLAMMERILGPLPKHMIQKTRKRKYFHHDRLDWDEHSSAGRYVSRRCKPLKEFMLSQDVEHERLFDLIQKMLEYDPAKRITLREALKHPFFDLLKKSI

[2] = test system: liver, adipose, muscle, and kidney tissue; test: proliferation of other tissues in 5-IT-treated mice; format: in vivo; conditions: 0.625 mg/kg i.p. twice a week for 3 weeks
DYRK2 = target: T1, DYRK2 (Homo sapiens, UniProt Q92630); test: kinase activity profiling, DYRK2; format: biochemical
T1 sequence (Q92630 1-601): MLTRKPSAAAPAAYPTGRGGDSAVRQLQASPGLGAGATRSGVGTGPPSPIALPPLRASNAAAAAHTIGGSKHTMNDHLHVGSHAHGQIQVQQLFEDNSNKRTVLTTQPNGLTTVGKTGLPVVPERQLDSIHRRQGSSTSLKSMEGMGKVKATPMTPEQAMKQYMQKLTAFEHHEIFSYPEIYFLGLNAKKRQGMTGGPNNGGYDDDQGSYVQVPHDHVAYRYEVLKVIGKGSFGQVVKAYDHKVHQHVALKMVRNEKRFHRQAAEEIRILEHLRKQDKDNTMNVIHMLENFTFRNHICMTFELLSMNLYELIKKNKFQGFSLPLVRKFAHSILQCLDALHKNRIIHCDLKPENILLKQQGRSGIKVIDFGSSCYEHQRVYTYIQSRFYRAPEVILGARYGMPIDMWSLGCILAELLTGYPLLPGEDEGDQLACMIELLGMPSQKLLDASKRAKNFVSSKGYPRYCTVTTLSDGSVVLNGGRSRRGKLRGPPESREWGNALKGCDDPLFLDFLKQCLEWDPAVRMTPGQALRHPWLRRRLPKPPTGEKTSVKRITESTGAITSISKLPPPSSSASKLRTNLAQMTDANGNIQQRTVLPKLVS

human β-cells [3] = test: human islet grafts in NSG mice, β-cell replication; format: in vivo, human islets transplanted in NSG mice
From the text: 1) Establishing a humanized mouse model: The humanized mouse model is established according to Kulkarni et al.[22,23] Briefly, the immunodeficient NOD.Cg-Prkdc^scidIl2rg^tm1Wj1SzJ mouse strain, commonly known as NOD-scid gamma (NSG), combines features of the NOD/ShiLtJ background and […], known as the severe combined immune deficiency mutation (scid), which essentially eliminates adaptive immunity. This strain has utility in studies of hematopoietic and cancer stem cells and of islet transplantation.
A separate group of mice with human islet transplants were injected with DMSO as vehicle controls, and sham-operated animals were used as an additional control group. The injection was repeated twice a week for 3 weeks. In the final week, we injected BrdU (100 mg/kg) daily for 4 days, and six hours after the last BrdU injection the pancreas was harvested. β-cell replication was assessed using previously described protocols.[23] For sivelestat experiments, osmotic pumps loaded with compound (300 μg/kg/day) were implanted into mice, and were treated for 14 days. Mice were provided BrdU in drinking water and injected i.p. on days 8, 11, and 14. Islets were harvested five hours after the last BrdU injection.

DYRK1B = DYRK1B (Homo sapiens, UniProt Q9Y463); test: kinase activity profiling, DYRK1B; format: biochemical
Sequence of DYRK1B (Q9Y463 whole entry): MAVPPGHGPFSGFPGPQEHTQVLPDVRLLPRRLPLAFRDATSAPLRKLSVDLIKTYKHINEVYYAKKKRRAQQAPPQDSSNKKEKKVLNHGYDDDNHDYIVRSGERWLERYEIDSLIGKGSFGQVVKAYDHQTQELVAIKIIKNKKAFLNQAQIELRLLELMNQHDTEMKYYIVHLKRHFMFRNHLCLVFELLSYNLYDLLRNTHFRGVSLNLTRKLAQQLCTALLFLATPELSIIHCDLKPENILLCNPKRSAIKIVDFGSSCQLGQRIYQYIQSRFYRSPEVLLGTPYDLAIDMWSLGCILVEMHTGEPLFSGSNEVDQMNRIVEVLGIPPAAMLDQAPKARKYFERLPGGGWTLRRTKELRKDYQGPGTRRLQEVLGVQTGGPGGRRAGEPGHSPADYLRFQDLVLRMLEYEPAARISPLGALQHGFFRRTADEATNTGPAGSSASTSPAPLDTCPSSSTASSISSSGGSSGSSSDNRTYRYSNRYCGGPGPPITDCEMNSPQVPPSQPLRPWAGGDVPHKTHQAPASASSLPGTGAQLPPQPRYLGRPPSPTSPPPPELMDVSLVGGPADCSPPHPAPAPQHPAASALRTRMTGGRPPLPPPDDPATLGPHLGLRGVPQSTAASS

human β-cells [4] = test: glucose-stimulated insulin secretion (GSIS) in dissociated islet cells; format: cell-based; conditions: cells treated for 12 days
From the text: In the DMSO-treated state, glucose stimulated ˜2-fold increase in insulin secretion in dissociated islet cells. […] Although incompletely understood, the loss of basal secretion may be due to cell-death effects on other cells in the culture system.

islets = test: islet fluorescence after intraperitoneal injection of DA-ZP1; format: in vivo; conditions: single dose 50 mg/kg intraperitoneally, 10-12-week old C57BL/6 mice
Protocol: (§1) Next, this probe was incubated in dissociated rat or human islets, co-staining for insulin to identify β-cells and glucagon to identify alpha cells. […] Using confocal microscopy, distinct green-fluorescent vesicles were observed within β-cells (FIG. 3D), showing the high degree of resolution for the localization of this probe. Finally, 10-12-week old C57BL/6 mice were injected intraperitoneally with a single dose of 50 mg/kg DA-ZP1 or DMSO.

[5] = test system: β-cells and alpha cells of dissociated rat or human islets; test: probe incubation in dissociated islets, co-staining for insulin and glucagon; format: cell-based
Protocol: as §1

[6] = test system: aTC1.6, PANC1, HEK293T and cells of other lineages; test: reaction-based probe (DA-ZP1) fluorescence in non-β cell types
Protocol: (§2) All the imaging experiments were performed in 96 well plate. INS-1E, PANC1, αTC1.6, HEK293T and other cell types were plated in 96 well plate. 70 μL, 4×PFA was added in each well to fix the cells. After 15 minutes, all the wells were washed with PBS. After washing with PBS, 70 μL DAPI (1×) (nuclear stain) was added along with appropriate concentration of DAZP-1. The staining process was continued for 20 minute and 100 μL PBS as was added in each well.

INS-1E = test: reaction-based probe (DA-ZP1) fluorescence in a β-cell line; conditions: compared to other cell types
Protocol: as §2

mouse islets (β-cells) [7] = test: sivelestat treatment of mouse islets, β-cell proliferation; conditions: in vivo
Protocol: (§3) Next, sivelestat, a small-molecule inhibitor of elastinolytic proteases and thus a partial mimic of serpinB1 activity, was tested for β-cell proliferation. […] Thus, small molecules promote β-cell proliferation in human islets transplanted in vivo by targeting two independent pathways.

[8] = test system: liver, skeletal muscle, visceral and subcutaneous adipose tissue, spleen, or kidney; format: in vivo, mouse; conditions: data not shown
Protocol: as §3

mouse islets (β-cells) [9] = test: mouse islet culture, Ki67 proliferation; format: cell-based
From the text: (§4) Liver was found as the source of a secreted factor in this model that can induce β-cell proliferation in mouse and human islets.[24] A proteomics effort using liver, liver explant-conditioned media, hepatocyte-conditioned media, and plasma led to the discovery that serpin B1, a protease inhibitor that targets elastases, is enriched in serum from LIRKO mice (FIG. 10).[1]

human islets (β-cells) = test: human islet β-cell proliferation with rSerpinB1; format: cell-based
From the text: as §4

[10] = human islet cells, 6 days of treatment
[11] = 0.625 mg/kg i.p. twice a week for 3 weeks

Sequence of CLK4 (Q9HAZ1 whole entry): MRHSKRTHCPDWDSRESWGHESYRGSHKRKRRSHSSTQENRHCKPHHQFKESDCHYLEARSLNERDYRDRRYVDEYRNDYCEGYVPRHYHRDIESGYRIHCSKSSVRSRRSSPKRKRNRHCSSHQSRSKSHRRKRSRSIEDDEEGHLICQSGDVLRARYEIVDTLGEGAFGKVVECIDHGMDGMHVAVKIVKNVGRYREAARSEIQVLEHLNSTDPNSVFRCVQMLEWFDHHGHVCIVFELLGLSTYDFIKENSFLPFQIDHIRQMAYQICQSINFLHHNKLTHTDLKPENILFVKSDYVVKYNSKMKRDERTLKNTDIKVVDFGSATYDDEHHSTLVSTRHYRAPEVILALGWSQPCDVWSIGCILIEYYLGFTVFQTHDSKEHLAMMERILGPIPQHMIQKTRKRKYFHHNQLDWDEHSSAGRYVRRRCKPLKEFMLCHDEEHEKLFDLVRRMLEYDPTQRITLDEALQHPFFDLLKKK
Sequence of CLK2 (P49760 whole entry): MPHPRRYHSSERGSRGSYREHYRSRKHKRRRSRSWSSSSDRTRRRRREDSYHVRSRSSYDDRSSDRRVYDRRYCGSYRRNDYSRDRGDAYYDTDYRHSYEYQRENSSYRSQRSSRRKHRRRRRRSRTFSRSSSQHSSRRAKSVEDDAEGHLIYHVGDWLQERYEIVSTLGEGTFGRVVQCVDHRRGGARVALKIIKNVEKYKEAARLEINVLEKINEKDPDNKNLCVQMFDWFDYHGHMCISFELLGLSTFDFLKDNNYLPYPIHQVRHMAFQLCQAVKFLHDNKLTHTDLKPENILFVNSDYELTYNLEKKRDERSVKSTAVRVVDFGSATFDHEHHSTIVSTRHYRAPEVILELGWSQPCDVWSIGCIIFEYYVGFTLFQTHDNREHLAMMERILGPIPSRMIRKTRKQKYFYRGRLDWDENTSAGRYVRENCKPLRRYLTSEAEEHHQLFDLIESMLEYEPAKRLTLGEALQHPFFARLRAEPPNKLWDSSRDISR

For `Nc1ncnc2c1c(I)cn2[C@@H]1O[C@H](CO)[C@@H](O)[C@H]1O` [5-IT, 5-iodotubercidin], the IC50 (CLK2) was 10 nM, the IC50 (CLK4) was 14 nM and the “concentrations toxic to cells” value (human β-cells [1]; human islet cells) was “greater than 1 μM”. The “effect on EdU incorporation / β-cell proliferation” value (human β-cells [1]; human islet cells) was “promotes”, the “concentration of maximal effect on proliferation” value (human β-cells [1]; [10]) was 1 µM and the “increase in proliferation (EdU incorporation)” value (human β-cells [1]; [10]) was roughly 10 fold. For the same molecule, the “proliferation of the other cell types in the heterogeneous culture system” value (human β-cells [1]; non-β cells of human islet culture) was “did not induce proliferation”, the IC50 (CLK1) was 36 nM and the “proliferation of liver, adipose, muscle, and kidney tissue, control vs treated mice” value [2] was “No significant differences”. The IC50 (DYRK2) was 6 nM, the “increase in BrdU incorporation in human islet grafts” value (human β-cells [3]; [11]) was roughly 5 fold and the “mitosis by Ki67 and pHH3 immunostaining in human islet grafts” value (human β-cells [3]; [11]) was “enhanced mitosis was confirmed”. For the same molecule, the IC50 (DYRK1B) was 10 nM, the “baseline secretion under low-glucose conditions” value (human β-cells [4]) was “decreased somewhat in a dose-dependent manner” and the “glucose-stimulated insulin secretion (GSIS)” value (human β-cells [4]) was “an increase in GSIS was observed”.

In the case of `Nc1ncnc2nc(-c3ccc(N4CCOCC4)nc3)cc(-c3cccc(Br)c3)c12` [ABT-702, 4-amino-5-(3-bromophenyl)-7-(6-morpholinopyridin-3-yl)pyrido[2,3-d]pyrimidine], the “effect on EdU incorporation / β-cell proliferation” value (human β-cells [1]; human islet cells) is reported as “does not; also recorded: no effect”.

With `CC(=O)Oc1c(Cl)cc2c(c1CN(Cc1ccccn1)Cc1ccccn1)Oc1c(cc(Cl)c(OC(C)=O)c1CN(Cc1ccccn1)Cc1ccccn1)C21OC(=O)c2ccccc21` [DA-ZP1] the “fluorescence in islet sections” value (islets) was “Fluorescence was detected”, the “overlap between glucagon-positive and zinc probe-positive cells” value [5] was “very little to no overlap” and the “overlap between insulin-positive and zinc probe-positive cells” value [5] was “high degree of overlap”. For the same molecule, the “fluorescence / labeling in other cell types” value [6] was “do not observe non-specific labeling”, the “fluorescence / labeling in other cell types” value ([6]; listed as reaction-based probe) was “minimal background fluorescence” and the “fluorescence in β-cells (INS-1E)” value (INS-1E) was “high average fluorescent cell intensity and high % fluorescence-positive cells”. The “fluorescence in β-cells (INS-1E)” value (INS-1E; listed as reaction-based probe) was “highly fluorescent”.

For `COc1ccc2c(c1)[nH]c1c(C)nccc12` [harmine], the “EdU+ins+ cells” value (human β-cells [1]; 5 and 10 μM, 6-days treatment, human islet cells) was “dose-dependent increase” and the “effect on EdU incorporation / β-cell proliferation” value (human β-cells [1]; human islet cells) was “promotes β-cell proliferation in a dose-dependent manner”.

With `CC(C)(C)C(=O)Oc1ccc(S(=O)(=O)Nc2ccccc2C(=O)NCC(=O)O)cc1` [sivelestat] the “β-cell proliferation in mouse islets” value (mouse islets (β-cells) [7]) was “increased β-cell proliferation”, the “effect on liver, skeletal muscle, visceral and subcutaneous adipose tissue, spleen, or kidney” value [8] was “without a significant effect” and the “proliferation of human β-cells (islet grafts)” value (human β-cells [3]; osmotic pumps 300 μg/kg/day, 14 days) was “increased proliferation”.

B1: rSerpinB1: recombinant human serpinB1, a protease inhibitor that targets elastases (protein, UniProt P30740 1-379, looked up)
Leukocyte elastase inhibitor: MEQLSSANTRFALDLFLALSENNPAGNIFISPFSISSAMAMVFLGTRGNTAAQLSKTFHFNTVEEVHSRFQSLNADINKRGASYILKLANRLYGEKTYNFLPEFLVSTQKTYGADLASVDFQHASEDARKTINQWVKGQTEGKIPELLASGMVDNMTKLVLVNAIYFKGNWKDKFMKEATTNAPFRLNKKDRKTVKMMYQKKKFAYGYIEDLKCRVLELPYQGEELSMVILLPDDIEDESTGLKKIEEQLTLEKLHEWTKPENLDFIEVNVSLPRFKLEESYTLNSDLARLGVQDLFNSSKADLSGMSGARDIFISKIVHKSFVEVNEEGTEAAAATAGIATFCMLMPEENFTADHPFLFFIRHNSSGSILFLGRFSSP
For B1, the “effect on Ki67+ insulin+ cells” value (mouse islets (β-cells) [9]) was “dose-dependent effect”, the “increase in the percentage of Ki67+ins+ cells” value (mouse islets (β-cells) [9]; dose of 1 μg/mL) was 2 fold and the “effect on Ki67+ insulin+ cells” value (mouse islets (β-cells) [9]; listed as serpinB1) was “dose-dependent effect”. The “effect on Ki67+ insulin+ cells” value (mouse islets (β-cells) [9]; listed as untagged SerpinB1) was “promotes” and the “β-cell proliferation from human islets” value (human islets (β-cells)) was “dose-dependent increase”.

B2: inactive N-tagged serpin B1 construct: inactive N-tagged serpin B1 construct from GeneCopoeia (protein, UniProt P30740 1-379, looked up)
Leukocyte elastase inhibitor: B1 Leukocyte elastase inhibitor
modifications: N-terminal tag; inactive
In the case of B2, the “effect on Ki67+ insulin+ cells” value (mouse islets (β-cells) [9]) is reported as “no impact”.
